From PubChem BioAssay (NCI)
Values joined by “and” are separate entries in the source; they are usually repeats but may differ in a detail not shown here. Equal values may be shown once.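 48-hour exposure; five concentrations; linearly interpolated endpoints. GI50: concentration for 50% inhibition of growth. TGI marks complete inhibition of growth.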

How the values were obtained:
Assay in all cases: NCI-60 cell line screen, 48 h
[1] = tested on: NCI-H23 lung
[2] = tested on: 786-0 renal
[3] = tested on: U251 CNS
[4] = tested on: SK-MEL-5 melanoma
[5] = tested on: K-562 leukemia
[6] = tested on: SNB-19 CNS
[7] = tested on: COLO 205 colon
[8] = tested on: SN12C renal
[9] = tested on: OVCAR-8 ovarian
[10] = tested on: IGROV1 ovarian

Structure (SMILES)	GI50 [1]	TGI [1]	GI50 [2]	TGI [2]	GI50 [3]	TGI [3] [µM]	GI50 [4]	TGI [4] [µM]	GI50 [5] [µM]	TGI [5]	GI50 [6] [µM]	TGI [6] [µM]	GI50 [7]	TGI [7] [µM]	GI50 [8]	TGI [8]	GI50 [9]	TGI [9] [µM]	GI50 [10]	TGI [10]
COc1cc(/C=N/NC(=O)c2cnn3c2NC(c2ccccc2)C3)ccc1OCc1ccccc1 (stereo unspecified)	1.2 µM	6.12 µM	1.16 µM	4.03 µM	1.14 µM	3.07	0.663 µM	2.8	0.293	15.3 µM	1.25	13.7	0.953 µM	4.22	2.26 µM	11 µM	2.15 µM	9.54	0.992 µM	7.26 µM
ClC/C=C/CSc1ncnc2nc[nH]c12	> 100 µM	> 100 µM	> 100 µM	> 100 µM	> 100 µM	> 100	> 100 µM	> 100	> 100	> 100 µM	> 100	> 100	> 100 µM	> 100	> 100 µM	> 100 µM	> 100 µM	> 100	> 100 µM	> 100 µM
O=C(NCCN1CCOCC1)c1cc2c(Oc3ccc(NC(=O)C4(C(=O)Nc5ccc(F)cc5)CC4)cc3)ccnc2[nH]1	1.59 µM	> 75.1 µM	6.74 µM	45.6 µM	7.87 µM	34.5	3.03 µM	12.4	4.27	42.2 µM	14.2	> 100	4.48 µM	> 48.7	1.44 µM	> 100 µM	5.19 µM	> 100	2.32 µM	> 100 µM
COc1oc(C2C/C(=C/C(C)=C/C(C)=C/C(C)=C/c3ccc([N+](=O)[O-])cc3)CO2)c(C)c(=O)c1C (stereo unspecified)		31.4 µM		21.6 µM		31.5		3.61		21.3 µM		73.7		24.6		27 µM		32.5		42.5 µM
CN(C)NC(=O)NC12CC3CC(CC(C3)C1)C2		> 100 µM		> 100 µM		> 100		> 100		> 100 µM		> 100		> 100		> 100 µM		> 100		> 100 µM
Nc1nc(N)c(CCCCc2ccc([N+](=O)[O-])cc2)c(N)n1		> 100 µM		> 100 µM		> 100		> 100		> 100 µM		> 100		> 100		> 100 µM		> 100		> 100 µM
O=C(Nc1c[nH]c(=O)[nH]c1=O)Oc1ccccc1		> 100 µM		> 100 µM		> 100		> 100		> 100 µM		> 100		> 100		> 100 µM		> 100		> 100 µM
COc1ccccc1NC(=O)c1sc2ncn(CCOc3ccccc3)c(=O)c2c1C	4.93 µM	> 50 µM	> 50 µM	> 50 µM	3.5 µM	> 50	1.15 µM	4.2	0.761	4.39 µM	> 50	> 50	2.88 µM	> 50	17.2 µM	> 50 µM	> 50 µM	> 50	1.9 µM	> 50 µM
O=C1c2ccc3c4c(ccc(c24)C(=O)N1CCCCO)C(=O)N(CCCCO)C3=O	1.6 µM	5.17 µM	2.91 µM	20.5 µM	2.14 µM	6.57	0.388 µM	1.48	2.54	> 100 µM	2.34	10.5	0.888 µM	2.5	1.88 µM	6.63 µM	1.33 µM	8.45	2.12 µM	5.87 µM
CCNC(=O)O/N=C1\CCC2[C@@H]3CC=C4C[C@@H](OC(=O)NCC)CC[C@]4(C)C3CC[C@]12C (stereo partly specified)		11.7 µM		12.8 µM		9.6		10.4		4 µM		14.1		1.73		11.9 µM		18.2		> 100 µM
Nc1ncc(CN2CCCC2)c(-c2ccccc2O)n1		> 750 µM		> 750 µM		> 750		> 750	> 750			> 750		> 750		> 750 µM		> 750		> 750 µM
COc1cc2c3c(c4cc(OC)c(OC)cc4c2cc1OC)CN1CCC[C@H]1C3	0.0406 µM and < 0.0123 µM	0.653 µM and 3.4 µM	0.0417 µM and 0.0103 µM	> 10 µM and 2.46 µM	0.0221 µM and < 0.01 µM	0.331	0.0607 µM and < 0.01 µM			> 10 µM and 19.3 µM		0.184	0.0592 µM and < 0.01 µM		0.0429 µM and < 0.0105 µM	1.3 µM and 0.374 µM	0.0381 µM and < 0.0103 µM	> 34	0.0433 µM and < 0.01 µM	1.45 µM and 1.42 µM
C=C(CN1CCN(c2cc(C(F)(F)F)cc(C(F)(F)F)c2)CC1)c1ccc(C(=O)Nc2ccccc2N)cc1	14.2 µM	72.1 µM	6.77 µM	86.5 µM	10.1 µM	> 100	2.28 µM	10.8	1.69	> 100 µM	14	> 100	7.11 µM	52.6	2.47 µM	13.4 µM	9.55 µM	> 100	4.2 µM	27.3 µM
CC(=O)O[C@H]1CSC[C@@H](OC(C)=O)C1[N+](=O)[O-] (stereo partly specified)		> 100 µM		36.5 µM		> 100		> 100		> 100 µM		> 100		49.1		> 100 µM		> 100		> 100 µM
NC1(C(=O)O)CCC(C(=O)O)CC1 (stereo unspecified)		> 100 µM		> 100 µM		> 100		> 100		> 100 µM		> 100		> 100		> 100 µM		> 100		> 100 µM
Oc1ccccc1/C=N\NC(=S)Nc1ccc(F)cc1	2.37 µM	> 100 µM	3.38 µM	> 100 µM	0.639 µM	> 100	1.15 µM	7.15	0.582	> 100 µM	2.32	> 100	4.8 µM	> 43	2.37 µM	> 93.7 µM	1.22 µM	> 63.1	1.31 µM	17.7 µM
